Tested on: MV-4-11 cells
Assay: Gene expression microarray analysis (Affymetrix PrimeView) and GSEA
Format: cell-based, human
Parameters: RFU PODN (11730768_x_at) / Fold change /veh PODN (11730768_x_at) / RFU LINC00158 (11744669_a_at) / Fold change /veh LINC00158 (11744669_a_at) / RFU DUSP10 (11751237_a_at) / Fold change /veh DUSP10 (11751237_a_at) / RFU ID3 (11757404_x_at) / Fold change /veh ID3 (11757404_x_at) / RFU PLEKHG5 (11737974_s_at) / Fold change /veh PLEKHG5 (11737974_s_at) / RFU LRRC4B (11730491_at) / Fold change /veh LRRC4B (11730491_at) / RFU GIMAP4 (11747438_a_at) / Fold change /veh GIMAP4 (11747438_a_at) / RFU KRT8 (11758183_x_at) / Fold change /veh KRT8 (11758183_x_at) / RFU CNN1 (11734310_a_at) / Fold change /veh CNN1 (11734310_a_at) / RFU VPS37D (11726825_at) / Fold change /veh VPS37D (11726825_at) / RFU C10orf10 (11716522_x_at) / Fold change /veh C10orf10 (11716522_x_at) / RFU KIR2DL2 /// KIR2DL4 /// KIR2DL5A /// KIR2DL5B /// KIR2DS1 /// KIR2DS2 /// KIR2DS3 /// KIR2DS4 /// KIR3DL3 /// KIR3DL3 /// KIR3DS1 (11738374_at) / Fold change /veh KIR2DL2 /// KIR2DL4 /// KIR2DL5A /// KIR2DL5B /// KIR2DS1 /// KIR2DS2 /// KIR2DS3 /// KIR2DS4 /// KIR3DL3 /// KIR3DL3 /// KIR3DS1 (11738374_at) / RFU C1QL1 (11718748_at) / Fold change /veh C1QL1 (11718748_at) / RFU TMPRSS4 (11747572_a_at) / Fold change /veh TMPRSS4 (11747572_a_at) / RFU HAMP (11756126_x_at) / Fold change /veh HAMP (11756126_x_at) / RFU RNFT2 (11725882_a_at) / Fold change /veh RNFT2 (11725882_a_at) / RFU NR4A2 (11747474_a_at) / Fold change /veh NR4A2 (11747474_a_at) / RFU ABCC12 (11746883_a_at) / Fold change /veh ABCC12 (11746883_a_at) / RFU TMEM136 (11760407_x_at) / Fold change /veh TMEM136 (11760407_x_at) / RFU CLDN22 /// WWC2 (11732394_at) / Fold change /veh CLDN22 /// WWC2 (11732394_at) / RFU HLA-DPB1 (11760878_x_at) / Fold change /veh HLA-DPB1 (11760878_x_at) / RFU SPINT1 (11716480_a_at) / Fold change /veh SPINT1 (11716480_a_at) / RFU GAP43 (11754022_s_at) / Fold change /veh GAP43 (11754022_s_at) / RFU A4GNT (11735810_at) / Fold change /veh A4GNT (11735810_at) / RFU PRB3 (11715151_x_at) / Fold change /veh PRB3 (11715151_x_at) / RFU TUBB4B (11761932_at) / Fold change /veh TUBB4B (11761932_at) / RFU CAPN14 (11732068_a_at) / Fold change /veh CAPN14 (11732068_a_at) / RFU TMCC2 (11721928_a_at) / Fold change /veh TMCC2 (11721928_a_at) / RFU IRGQ (11745062_a_at) / Fold change /veh IRGQ (11745062_a_at) / RFU FAM174B (11720279_a_at) / Fold change /veh FAM174B (11720279_a_at) / RFU TMPRSS4 (11748680_a_at) / Fold change /veh TMPRSS4 (11748680_a_at) / RFU FAM212B (11763350_a_at) / Fold change /veh FAM212B (11763350_a_at) / RFU PLEKHG5 (11743358_a_at) / Fold change /veh PLEKHG5 (11743358_a_at) / RFU ZSCAN30 (11745921_a_at) / Fold change /veh ZSCAN30 (11745921_a_at) / RFU CMKLR1 (11741424_a_at) / Fold change /veh CMKLR1 (11741424_a_at) / RFU LOC101060620 /// MAPK8IP1 (11723275_at) / Fold change /veh LOC101060620 /// MAPK8IP1 (11723275_at) / RFU SPTSSB (11747773_x_at) / Fold change /veh SPTSSB (11747773_x_at) / RFU PRSS12 (11739890_at) / Fold change /veh PRSS12 (11739890_at) / RFU BIN1 (11741810_x_at) / Fold change /veh BIN1 (11741810_x_at) / RFU WNT11 (11732464_a_at) / Fold change /veh WNT11 (11732464_a_at) / RFU C10orf10 (11716521_a_at) / Fold change /veh C10orf10 (11716521_a_at) / RFU C5orf56 (11738089_at) / Fold change /veh C5orf56 (11738089_at) / RFU CYB561 (11721691_x_at) / Fold change /veh CYB561 (11721691_x_at) / RFU ANKRD19P (11752326_a_at) / Fold change /veh ANKRD19P (11752326_a_at) / RFU OR2T12 /// OR2T33 /// OR2T8 (11738714_s_at) / Fold change /veh OR2T12 /// OR2T33 /// OR2T8 (11738714_s_at) / RFU VCAN (11748164_a_at) / Fold change /veh VCAN (11748164_a_at) / RFU JSRP1 (11732532_at) / Fold change /veh JSRP1 (11732532_at) / RFU KRTAP10-11 (11738290_x_at) / Fold change /veh KRTAP10-11 (11738290_x_at) / RFU MYO3A (11730013_a_at) / Fold change /veh MYO3A (11730013_a_at) / RFU EBF3 (11725865_a_at) / Fold change /veh EBF3 (11725865_a_at) / RFU CAMK2N1 (11719241_x_at) / Fold change /veh CAMK2N1 (11719241_x_at) / RFU C5orf56 (11738088_a_at) / Fold change /veh C5orf56 (11738088_a_at) / RFU OLFML3 (11715873_a_at) / Fold change /veh OLFML3 (11715873_a_at) / RFU LOC100653217 /// NTM (11731650_a_at) / Fold change /veh LOC100653217 /// NTM (11731650_a_at) / RFU MAPK11 (11762145_a_at) / Fold change /veh MAPK11 (11762145_a_at) / RFU FIZ1 (11724087_x_at) / Fold change /veh FIZ1 (11724087_x_at) / RFU OASL (11726364_x_at) / Fold change /veh OASL (11726364_x_at) / RFU SOX15 (11748057_x_at) / Fold change /veh SOX15 (11748057_x_at) / RFU CD79A (11719716_a_at) / Fold change /veh CD79A (11719716_a_at) / RFU HIST1H1D (11736915_at) / Fold change /veh HIST1H1D (11736915_at) / RFU CASKIN2 (11723855_a_at) / Fold change /veh CASKIN2 (11723855_a_at) / RFU LOC730098 (11760151_x_at) / Fold change /veh LOC730098 (11760151_x_at) / RFU OR4N2 (11742367_at) / Fold change /veh OR4N2 (11742367_at) / RFU PRRT2 (11749266_a_at) / Fold change /veh PRRT2 (11749266_a_at) / RFU SNX32 (11753110_a_at) / Fold change /veh SNX32 (11753110_a_at) / RFU CDHR5 (11726645_a_at) / Fold change /veh CDHR5 (11726645_a_at) / RFU RCAN1 (11760418_a_at) / Fold change /veh RCAN1 (11760418_a_at) / RFU FAM167A (11723789_a_at) / Fold change /veh FAM167A (11723789_a_at) / RFU FAM26E (11764081_at) / Fold change /veh FAM26E (11764081_at) / RFU ISYNA1 (11749810_s_at) / Fold change /veh ISYNA1 (11749810_s_at) / RFU ACY1 (11761880_at) / Fold change /veh ACY1 (11761880_at) / RFU 11764098_at / Fold change /veh 11764098_at / RFU SAMD14 (11745864_x_at) / Fold change /veh SAMD14 (11745864_x_at) / RFU NPB (11741838_a_at) / Fold change /veh NPB (11741838_a_at) / RFU TMPRSS6 (11731388_a_at) / Fold change /veh TMPRSS6 (11731388_a_at) / RFU KRTAP10-2 (11738614_at) / Fold change /veh KRTAP10-2 (11738614_at) / RFU ARHGAP8 /// PRR5-ARHGAP8 (11727945_x_at) / Fold change /veh ARHGAP8 /// PRR5-ARHGAP8 (11727945_x_at) / RFU KRTAP5-7 /// NADSYN1 (11734609_at) / Fold change /veh KRTAP5-7 /// NADSYN1 (11734609_at) / RFU RASL12 (11751679_a_at) / Fold change /veh RASL12 (11751679_a_at) / RFU CDKN2B (11736163_a_at) / Fold change /veh CDKN2B (11736163_a_at) / RFU PRF1 (11729649_at) / Fold change /veh PRF1 (11729649_at) / RFU, ZNF638 /// ZNF638-IT1 / Fold change vs veh, ZNF638 /// ZNF638-IT1 / RFU, PANK3 / Fold change vs veh, PANK3 / RFU, SH3YL1 / Fold change vs veh, SH3YL1 / RFU, ZEB2 / Fold change vs veh, ZEB2 / RFU, NRIP1 / Fold change vs veh, NRIP1 / RFU, PTTG1IP / Fold change vs veh, PTTG1IP / RFU, CAPN2 / Fold change vs veh, CAPN2 / RFU, MED14 / Fold change vs veh, MED14 / RFU, SNORA58 / Fold change vs veh, SNORA58 / RFU, C1orf63 / Fold change vs veh, C1orf63 / RFU, LRRFIP1 / Fold change vs veh, LRRFIP1 / RFU, NDUFAF7 / Fold change vs veh, NDUFAF7 / RFU, SLC12A2 / Fold change vs veh, SLC12A2 / RFU, IBTK / Fold change vs veh, IBTK / RFU, ESF1 / Fold change vs veh, ESF1 / Fold change vs veh, TMEM50B / RFU, TAOK1 / Fold change vs veh, TAOK1 / RFU, ACBD3 / Fold change vs veh, ACBD3 / RFU, TMA16 / Fold change vs veh, TMA16 / RFU, RWDD3 / Fold change vs veh, RWDD3 / RFU, BCAT1 / Fold change vs veh, BCAT1 / RFU, EDEM3 / Fold change vs veh, EDEM3 / RFU, TMEM33 / Fold change vs veh, TMEM33 / RFU, WDR75 / Fold change vs veh, WDR75 / RFU, AHCTF1 / Fold change vs veh, AHCTF1 / RFU, TFRC / Fold change vs veh, TFRC / RFU, ZDHHC17 / Fold change vs veh, ZDHHC17 / RFU, NOM1 / Fold change vs veh, NOM1 / RFU, ARL8B / Fold change vs veh, ARL8B / RFU, ZBTB11 / Fold change vs veh, ZBTB11 / RFU, TAMM41 / Fold change vs veh, TAMM41 / RFU, KIAA1704 /// LOC100996395 / Fold change vs veh, KIAA1704 /// LOC100996395 / RFU, ING1 / Fold change vs veh, ING1 / RFU, TRMT61B / Fold change vs veh, TRMT61B / RFU, FUBP3 / Fold change vs veh, FUBP3 / RFU, TP53 / Fold change vs veh, TP53 / RFU, TNKS2 / Fold change vs veh, TNKS2 / RFU, ZFP14 / Fold change vs veh, ZFP14 / RFU, ACTR2 / Fold change vs veh, ACTR2 / RFU, PPP3R1 / Fold change vs veh, PPP3R1 / RFU, PIK3R1 / Fold change vs veh, PIK3R1 / RFU, HNRNPA1 / Fold change vs veh, HNRNPA1 / RFU, RNF170 / Fold change vs veh, RNF170 / RFU, ZNF28 / Fold change vs veh, ZNF28 / RFU, RNGTT / Fold change vs veh, RNGTT / RFU, OGT / Fold change vs veh, OGT / RFU, BRD1 / Fold change vs veh, BRD1 / RFU, MARS / Fold change vs veh, MARS / RFU, ZNF655 / Fold change vs veh, ZNF655 / RFU, FAHD1 / Fold change vs veh, FAHD1 / RFU, BDP1 / Fold change vs veh, BDP1 / RFU, LRRCC1 / Fold change vs veh, LRRCC1 / RFU, ARID1A / Fold change vs veh, ARID1A / RFU, ZNF146 / Fold change vs veh, ZNF146 / RFU, ZNF330 / Fold change vs veh, ZNF330 / RFU, GPN3 / Fold change vs veh, GPN3 / RFU, C9orf123 / Fold change vs veh, C9orf123 / RFU, N4BP2L2 / Fold change vs veh, N4BP2L2 / RFU, ARFIP1 / Fold change vs veh, ARFIP1 / RFU, FAM179B / Fold change vs veh, FAM179B / RFU, BCL10 / Fold change vs veh, BCL10 / RFU, UHRF1BP1L / Fold change vs veh, UHRF1BP1L / RFU, BET1 / Fold change vs veh, BET1 / RFU, CNOT2 / Fold change vs veh, CNOT2 / RFU, ZNF268 / Fold change vs veh, ZNF268 / Fold change vs veh, ZNF507 / RFU, DGCR2 / Fold change vs veh, DGCR2 / RFU, WDSUB1 / Fold change vs veh, WDSUB1 / Fold change vs veh, HSP90B1 /// MIR3652 / RFU, ADSS / Fold change vs veh, ADSS / RFU, GK / Fold change vs veh, GK / RFU, ZNF148 / Fold change vs veh, ZNF148 / RFU, TAF9 / Fold change vs veh, TAF9 / RFU, SLC1A5 / Fold change vs veh, SLC1A5 / RFU, SLMO2 / Fold change vs veh, SLMO2 / RFU, ABCC4 / Fold change vs veh, ABCC4 / RFU, LOC101060439 /// RAP1B / Fold change vs veh, LOC101060439 /// RAP1B / RFU, RFX7 / Fold change vs veh, RFX7 / RFU, GTPBP10 / Fold change vs veh, GTPBP10 / RFU, CNEP1R1 / Fold change vs veh, CNEP1R1 / RFU, BIVM-ERCC5 /// ERCC5 / Fold change vs veh, BIVM-ERCC5 /// ERCC5 / RFU, ILF3 / Fold change vs veh, ILF3 / RFU 11762660_at / Fold change /veh 11762660_at / RFU VCAN (11757783_s_at) / Fold change /veh VCAN (11757783_s_at) / RFU DDX43 (11728927_at) / Fold change /veh DDX43 (11728927_at) / RFU KRT8 (11758188_x_at) / Fold change /veh KRT8 (11758188_x_at) / RFU NKD1 (11759106_at) / Fold change /veh NKD1 (11759106_at) / RFU SRD5A1 (11742802_a_at) / Fold change /veh SRD5A1 (11742802_a_at) / RFU TPSAB1 /// TPSB2 (11721975_s_at) / Fold change /veh TPSAB1 /// TPSB2 (11721975_s_at) / RFU GSTM3 (11746129_a_at) / Fold change /veh GSTM3 (11746129_a_at) / RFU IL23R (11737362_x_at) / Fold change /veh IL23R (11737362_x_at) / RFU TMEM51 (11727254_a_at) / Fold change /veh TMEM51 (11727254_a_at) / RFU PIWIL2 (11732686_x_at) / Fold change /veh PIWIL2 (11732686_x_at) / RFU ORM1 (11744905_x_at) / Fold change /veh ORM1 (11744905_x_at) / RFU CCDC152 (11743942_at) / Fold change /veh CCDC152 (11743942_at) / RFU ECM1 (11717891_a_at) / Fold change /veh ECM1 (11717891_a_at) / RFU IL23R (11748794_a_at) / Fold change /veh IL23R (11748794_a_at) / RFU TNFAIP8L3 (11732012_x_at) / Fold change /veh TNFAIP8L3 (11732012_x_at) / RFU MBOAT4 (11741988_at) / Fold change /veh MBOAT4 (11741988_at) / RFU 11764193_at / Fold change /veh 11764193_at / RFU TMEM53 (11763286_at) / Fold change /veh TMEM53 (11763286_at) / RFU MAGEB2 (11727129_at) / Fold change /veh MAGEB2 (11727129_at) / RFU TMEM200A (11744735_a_at) / Fold change /veh TMEM200A (11744735_a_at) / RFU CCDC152 (11751479_a_at) / Fold change /veh CCDC152 (11751479_a_at) / RFU FAM211A (11726209_a_at) / Fold change /veh FAM211A (11726209_a_at) / RFU RGS16 (11746705_a_at) / Fold change /veh RGS16 (11746705_a_at) / RFU VCAN (11755009_s_at) / Fold change /veh VCAN (11755009_s_at) / RFU RHOB (11743442_s_at) / Fold change /veh RHOB (11743442_s_at) / RFU RGS16 (11720943_a_at) / Fold change /veh RGS16 (11720943_a_at) / RFU RGS16 (11720944_at) / Fold change /veh RGS16 (11720944_at) / RFU, VPS4B / Fold change vs veh, VPS4B / RFU, CREB1 / Fold change vs veh, CREB1 / RFU, DNAJC13 / Fold change vs veh, DNAJC13 / RFU, GNAQ / Fold change vs veh, GNAQ / RFU, CDK5R1 / Fold change vs veh, CDK5R1 / RFU, ZRANB3 / Fold change vs veh, ZRANB3 / RFU, CUL4A / Fold change vs veh, CUL4A / RFU, CCNY / Fold change vs veh, CCNY / RFU, UFL1 / Fold change vs veh, UFL1 / RFU, COG3 / Fold change vs veh, COG3 / RFU, DIAPH2 / Fold change vs veh, DIAPH2 / RFU, SKA2 / Fold change vs veh, SKA2 / RFU, AFF3 / Fold change vs veh, AFF3 / RFU, LMF1 / Fold change vs veh, LMF1 / RFU, IPO11 / Fold change vs veh, IPO11 / RFU, DFFB / Fold change vs veh, DFFB / RFU, FOXP1 / Fold change vs veh, FOXP1 / RFU, CARD8 / Fold change vs veh, CARD8 / RFU, STRN3 / Fold change vs veh, STRN3 / RFU, ADK / Fold change vs veh, ADK / RFU, RASSF2 / Fold change vs veh, RASSF2 / RFU, WIPF1 / Fold change vs veh, WIPF1 / RFU, LARP1B / Fold change vs veh, LARP1B / RFU, RASA1 / Fold change vs veh, RASA1 / RFU, RB1 / Fold change vs veh, RB1 / RFU, PPFIA1 / Fold change vs veh, PPFIA1 / RFU, MAT2A / Fold change vs veh, MAT2A / RFU, CCT5 / Fold change vs veh, CCT5 / RFU, WDR92 / Fold change vs veh, WDR92 / RFU, CUX1 / Fold change vs veh, CUX1 / RFU, TTC7A / Fold change vs veh, TTC7A / RFU, TMEM135 / Fold change vs veh, TMEM135 / RFU, DEPTOR / Fold change vs veh, DEPTOR / RFU, CPM / Fold change vs veh, CPM / RFU, DNAJB6 / Fold change vs veh, DNAJB6 / RFU, CACNA2D3 / Fold change vs veh, CACNA2D3 / RFU, DTX4 / Fold change vs veh, DTX4 / RFU, TFCP2 / Fold change vs veh, TFCP2 / RFU, GMCL1 /// GMCL1P1 / Fold change vs veh, GMCL1 /// GMCL1P1 / RFU, AEBP2 / Fold change vs veh, AEBP2 / RFU, SNHG1 /// SNORD22 /// SNORD25 /// SNORD26 /// SNORD27 /// SNORD28 /// SNORD29 /// SNORD31 / Fold change vs veh, SNHG1 /// SNORD22 /// SNORD25 /// SNORD26 /// SNORD27 /// SNORD28 /// SNORD29 /// SNORD31 / Fold change (Aza/veh), C12orf56 (ProbeSet 11735607_a_at) / Fold change (ACY-1035/veh), C12orf56 (ProbeSet 11735607_a_at) / Fold change (Aza/veh), FGFR1OP (ProbeSet 11751329_s_at) / Fold change (ACY-1035/veh), FGFR1OP (ProbeSet 11751329_s_at) / Fold change (Aza/veh), VPS36 (ProbeSet 11739960_a_at) / Fold change (ACY-1035/veh), VPS36 (ProbeSet 11739960_a_at) / RFU SYPL1 (11715823_x_at) / Fold change /veh SYPL1 (11715823_x_at) / RFU IGFBP7 (11715501_s_at) / Fold change /veh IGFBP7 (11715501_s_at) / RFU REEP3 (11722064_at) / Fold change /veh REEP3 (11722064_at) / RFU IGLL1 (11728026_x_at) / Fold change /veh IGLL1 (11728026_x_at): dose or concentration left out as unconfirmed
Conditions: MV-4-11 cells, 48 hours

`Nc1ncn([C@@H]2O[C@H](CO)[C@@H](O)[C@H]2O)c(=O)n1` [azacitidine] was tested, and the “RFU OLFML3 (11715873_a_at)” value was 10.99 RFU.

Reference: PMC5218480 (PLoS ONE, 2017)
